Assay results taken from EP0185130A1, “5-Alkoxy-2,4,6-triodo or tribromo-isophthalic-acid derivatives, process for their preparation and X-ray contrast agents containing them” (BRACCO INDUSTRIA CHIMICA Società per Azioni, priority 1984, dated 1986).
Converted amounts (≈) assume the structure as drawn. Like-named read-outs stand apart in the source and are kept apart here. Each block holds one compound with its values, some of them ahead of it.

Experiments:
[1] = Water solubility; format: physicochemical; conditions: for solubility: water, read-out: Wasserlöslichkeit
[2] = Heat sterilisation of aqueous injection solutions (stability); format: physicochemical; conditions: 120 °C for 30 minutes
Text: Beispielsweise werden die nach den vorstehenden Beispielen erhaltenen reinen 5-Alkoxy-2,4,6-trijodisopthalsäurediamide unter sterilen Bedingungen in der gewünschten Menge bidestilliertem Wasser gelöst, filtriert, unter Zusatz von geringen Mengen EDTA-Na2 und Puffersubstanzen auf pH 6,9 bis 7,1 eingestellt, in Serumflaschen oder Ampullen abgefüllt und anschliessend sterilisiert.

[3] = result in words, no temperature stated

Compound: 5-(3,6,9-Trioxadecyl)oxy-2,4,6-tribromisophthalsäure-bis(1,3-dihydroxy- isopropylamid) [Beispiel 7]
- Wasserlöslichkeit ([1]; bei 20 °C): > 100 % (g/v)
- sterilisieren durch Erhitzen [2]: ohne Schwierigkeiten

Compound: 5-(3,6,9-Triuxadecyl)oxy-2,4,6-trijodisophthalsäure-bis(1,3-dihydroxy- isopropylamid) [Beispiel 2]
- Wasserlöslichkeit ([1]; bei Raumtemperatur): > 100 % (g/v)
- sterilisieren durch Erhitzen [2]: ohne Schwierigkeiten

Compound: COCCOCCOCCOCCOCCOc1c(I)c(C(=O)NC(CO)CO)c(I)c(C(=O)NC(CO)CO)c1I [Beispiel 3, 5-(3,6,9,12,15-Pentaoxahexadecyl)oxy-2,4,6-trijod-isophthalsäure-bis-(1,3-dihydroxyisopropylamid)]
- solubility ([1]; bei Raumtemperatur): > 1000 mg/mL
- sterilisieren durch Erhitzen [2]: ohne Schwierigkeiten

Compound: O=C(NC(CO)CO)c1c(I)c(OCCOCCOCCO)c(I)c(C(=O)NC(CO)CO)c1I [Beispiel 5]
- solubility ([1]; bei Raumtemperatur): > 1000 mg/mL
- sterilisieren durch Erhitzen [2]: ohne Schwierigkeiten

Compound: CCOCCOCCOc1c(I)c(C(=O)N(CCO)CC(O)CO)c(I)c(C(=O)N(CCO)CC(O)CO)c1I (centres unmarked) [Beispiel 41, 5-(3,6-Dioxaoctyl)oxy-2,4,6-trijodisophthalsäure-bis(N-2-hydroxyethyl-N-2,3-dihydroxypropylamid)]
- solubility ([1]; bei Raumtemperatur): > 1000 mg/mL

Compound: CCOCCOCCOc1c(I)c(C(=O)NCC(O)CO)c(I)c(C(=O)NC(CO)CO)c1I (centres unmarked) [Beispiel 42, 1-(3-(1,3-Dihydroxyisopropylaminocarbonyl)-5-(2,3-dihydroxypropylamino-carbonyl)-2,4,6-trijod-phenoxy)-3,6-dioxaoctan]
- solubility ([1]; no temperature stated): > 500 mg/mL

Compound: O=C(NCC(O)CO)c1c(I)c(OCCOCCOCCOc2c(I)c(C(=O)NCC(O)CO)c(I)c(C(=O)NCC(O)CO)c2I)c(I)c(C(=O)NCC(O)CO)c1I (centres unmarked) [Beispiel 44, 1,8-Bis-(3,5-bis(2,3-dihydroxypropylaminocarbonyl)-2,4,6-trijod-phenoxy)-3,6-dioxan]
- Wasserlöslichkeit [1, 3]: Wenig löslich in Wasser

Compound: O=C(NCC(O)CO)c1c(I)c(OCCOCCOCCOCCOCCOc2c(I)c(C(=O)NCC(O)CO)c(I)c(C(=O)NC(CO)CO)c2I)c(I)c(C(=O)NC(CO)CO)c1I (centres unmarked) [Beispiel 45, 1,14-Bis-(3-(1,3-dihydroxyisopropylaminocarbonyl)-5-(2,3-dihydroxy-propylaminocarbonyl)-2,4,6-trijodphenoxy)-3,6,9,12-tetraoxatetradecan]
- Wasserlöslichkeit [1, 3]: gut wasserlöslich

Compound: O=C(COc1c(I)c(C(=O)NC(CO)CO)c(I)c(C(=O)NC(CO)CO)c1I)NCC(O)C(O)CNC(=O)COc1c(I)c(C(=O)NC(CO)CO)c(I)c(C(=O)NC(CO)CO)c1I (centres unmarked) [Beispiel 47, 1,4-Bis-(3,5-bis(1,3-dihydroxyisopropylaminocarbonyl)-2,4,6-trijod-phenoxy-acetylamino)-2,3-dihydroxybutan]
- Wasserlöslichkeit [1, 3]: wasserlöslich

Compound: O=C(COc1c(I)c(C(=O)NC(CO)CO)c(I)c(C(=O)NC(CO)CO)c1I)NCC(O)CO (centres unmarked) [Beispiel 49, 5-(2,3-Dihydroxypropylaminocarbonyl)methoxy-2,4,6-trijodisophthalsäure-bis(1,3-dihydroxyisopropylamid)]
- Wasserlöslichkeit [1, 3]: leicht löslich in Wasser

Compound: COC(=O)[C@@H](C)Oc1c(Br)c(C(=O)NC(CO)CO)c(Br)c(C(=O)NC(CO)CO)c1Br [R(+)-5(1(Methoxycarbonyl)ethoxy)-2,4,6-tribromisophthalsäure-bis(1,3-di-hydroxyisopropylamid)]
- Wasserlöslichkeit [1, 3]: sehr gut wasserlösliche

Compound: COC(=O)[C@@H](C)Oc1c(I)c(C(=O)NC(CO)CO)c(I)c(C(=O)NC(CO)CO)c1I [R(+)-5(1(Methoxycarbonyl)ethoxy-IPSA]
- solubility ([1]; bei 25 °C): ~800 mg/mL (≈ 1010 mM)

Compound: R(+)-5-(1(1,3-Dihydroxyisopropylaminocarbonyl)ethoxy)-2,4,6-tribromiso- phthalsäure-bis(1,3-dihydroxyisopropylamid) [Beispiel 13]
- Wasserlöslichkeit ([1]; bei 20 °C): 5 % (g/v)
- Wasserlöslichkeit ([1]; bei 100 °C): 100 % (g/v)

Further lines, results first:

- solubility ([1]; bei 20 °C): > 1000 mg/mL
- sterilisieren durch Erhitzen [2]: ohne Schwierigkeiten
Compound: COCCOCCOCCOCCOCCOCCOCCOc1c(I)c(C(=O)NC(CO)CO)c(I)c(C(=O)NC(CO)CO)c1I [Beispiel 4, 5-(3,6,9,12,15,18,21-Heptaoxadocosyl)oxy-2,4,6-trijodisophthalsäure-bis(1,3-dihydroxyisopropylamid)]

- solubility ([1]; bei 20 °C): > 1000 mg/mL
Compound: CN(C[C@H](O)[C@@H](O)[C@H](O)[C@H](O)CO)C(=O)COc1c(Br)c(C(=O)NCC(O)CO)c(Br)c(C(=O)NCC(O)CO)c1Br (some centres unmarked) [Beispiel 38, 5-(N-Methyl-N-2,3,4,5,6-pentahydroxyhexyl)aminocarbonylmethoxy-2,4,6-tribromisophthalsäure-bis(2,3-dihydroxypropylamid)]

- solubility ([1]; bei 20 °C): ≥ 1000 mg/mL
Compound: CN(CC(O)CO)C(=O)COc1c(I)c(C(=O)NC(C)(CO)CO)c(I)c(C(=O)NC(C)(CO)CO)c1I (centres unmarked) [Beispiel 39, 5(N-Methyl-N-2,3-dihydroxypropyl)aminocarbonylmethoxy-2,4,6-trijod-isophthalsäure-bis(1,3-dihydroxy-2-methylisopropylamid)]

- solubility ([1]; bei 25 °C): > 600 mg/mL
Compound: CCOCCOCCOc1c(I)c(C(=O)N(C)CC(O)CO)c(I)c(C(=O)N(C)CC(O)CO)c1I (centres unmarked) [Beispiel 40, 5-(3,6-Dioxaoctyl)oxy-2,4,6-trijodisophthalsäure-bis(N-methyl-N-2,3-dihydroxypropylamid)]

- Wasserlöslichkeit [1, 3]: Wenig löslich in Wasser
Compound: O=C(NC(CO)CO)c1c(I)c(OCCOCCOCCOc2c(I)c(C(=O)NC(CO)CO)c(I)c(C(=O)NC(CO)CO)c2I)c(I)c(C(=O)NC(CO)CO)c1I [Beispiel 43, 1,8-Bis-(3,5-bis(1,3-dihydroxyisopropylaminocarbonyl)-2,4,6-trijod-phenoxy)-3,6-dioxaoctan]

- Wasserlöslichkeit [1, 3]: kaum löslich in Wasser
Compound: O=C(COc1c(I)c(C(=O)NC(CO)CO)c(I)c(C(=O)NC(CO)CO)c1I)NCCNC(=O)COc1c(I)c(C(=O)NC(CO)CO)c(I)c(C(=O)NC(CO)CO)c1I [Beispiel 46, 1,2-Bis-(3,5-bis(1,3-dihydroxyisopropylaminocarbonyl)-2,4,6-trijod-phenoxy-acetylamino)-ethan]

- Wasserlöslichkeit [1, 3]: leicht löslich in Wasser
Compound: O=C(COc1c(I)c(C(=O)NCC(O)CO)c(I)c(C(=O)NCC(O)CO)c1I)NC(CO)CO (centres unmarked) [Beispiel 48, 5-(1,3-Dihydroxyisopropylaminocarbonyl)methoxy-2,4,6-trijodisophthal-säure-bis(2,3-dihydroxypropylamid)]
